Emax and EC50 data for seven compounds are collected here from patent US20260097037A1, “FUSED RING COMPOUND HAVING GLP-1 RECEPTOR AGONIST EFFECT” (Shionogi & Co., Ltd., priority 2022, published 2026).

This experiment has as its target T1, Human GLP-1 receptor stably expressing cells (hGLP-1R/CHO-K1 cells) (Homo sapiens, UniProt P43220).
T1 construct: expressed in transfected cells
Briefly: Measurement of GLP-1 receptor agonist activity (cAMP assay). The format is cell-based. The settings on record: for Emax: CHO-K1, maximum effect, cAMP with 2 nM human GLP-1 (7-36) = 100%, DMSO only = 0%, read-out: Emax; for EC50: increase in cAMP concentration in hGLP-1R/CHO-K1 cells, 37° C. 1 hour. A digest of the protocol:
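hGLP-1R/CHO-K1 cells (cryopreserved) incubated with compound and forskolin in HBSS with 0.1% BSA, IBMX and RO20-1724, 1 h at 37° C; cAMP read by HTRF. EC50 and Emax from cAMP rise, normalised to 2 nM human GLP-1 (7-36) (100%) and DMSO (0%).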

T1 sequence (P43220 24-463): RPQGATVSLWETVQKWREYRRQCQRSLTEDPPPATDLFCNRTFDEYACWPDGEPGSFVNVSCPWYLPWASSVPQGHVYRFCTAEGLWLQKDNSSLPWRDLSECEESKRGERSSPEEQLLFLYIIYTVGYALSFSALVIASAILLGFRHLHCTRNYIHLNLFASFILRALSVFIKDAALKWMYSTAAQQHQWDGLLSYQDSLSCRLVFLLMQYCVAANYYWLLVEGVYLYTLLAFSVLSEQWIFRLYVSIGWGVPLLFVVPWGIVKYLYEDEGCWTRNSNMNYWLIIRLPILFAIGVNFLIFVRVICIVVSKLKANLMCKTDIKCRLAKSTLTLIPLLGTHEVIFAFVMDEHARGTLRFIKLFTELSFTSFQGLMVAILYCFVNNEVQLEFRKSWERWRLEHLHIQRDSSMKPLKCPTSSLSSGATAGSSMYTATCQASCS

Take `C[C@H]1c2nc(OCc3ccc(Cl)cc3F)c(C(F)(F)F)cc2CCN1Cc1nc2c(-c3cccnc3)cc(C(=O)O)cc2n1C[C@@H]1CCO1` [Compound I-190]: the maximal response (Emax) was 93.3% and the response was half-maximal at 4.29 nM (EC50).

For `C[C@H]1c2nc(NCc3ncc(Cl)cc3F)c(C(F)(F)F)cc2CCN1Cc1nc2c(F)cc(C(=O)O)cc2n1C[C@@H]1CCO1` [Compound I-191], the Emax amounted to 114% and the EC50 was found to be 0.266 nM.

For the compound `C[C@H]1c2nc(NCc3ccc(C#N)cc3F)c(C(F)(F)F)cc2CCN1Cc1nc2c(F)cc(C(=O)O)cc2n1C[C@@H]1CCO1` [Compound I-193], the maximal effect (Emax) was 110% and the EC50 is 0.211 nM.

Turning to `C[C@H]1c2nc(NCc3ccc(C#N)cc3F)c(C(F)(F)F)cc2CCN1Cc1nc2c(Cl)cc(C(=O)O)cc2n1C[C@@H]1CCO1` [Compound I-194], the Emax was found to be 103% and it took 0.137 nM to reach a half-maximal effect (EC50).

With `COc1cc(C(=O)O)cc2c1nc(CN1CCc3cc(C(F)(F)F)c(NCc4ccc(C#N)cc4F)nc3[C@@H]1C)n2C[C@@H]1CCO1` [Compound I-195], the Emax turned out to be 123% and the EC50 was found to be 0.0514 nM.

Take `C[C@H]1c2nc(NCc3ccc(Cl)cn3)c(C(F)(F)F)cc2CCN1Cc1nc2c(F)cc(C(=O)O)cc2n1C[C@@H]1CCO1` [Compound I-196]: the Emax worked out at 108% and the response was half-maximal at 0.611 nM (EC50).

On to `C[C@H]1c2nc(NCc3ccc(Cl)cn3)c(C(F)(F)F)cc2CCN1Cc1nc2c(Cl)cc(C(=O)O)cc2n1C[C@@H]1CCO1` [Compound I-197], for which the maximum response (Emax) came out at 111% and the half-maximal effective concentration (EC50) is 0.345 nM.
